Legend:
[1] = The drug is tested on WLS-220 corresponding to human gut metagenome with ENA study accession number: PRJEB37062 and ENA sample accession number: ERS12561769 for biotransformation under anaerobic condition. The drug concentrations were measured over 9 timepoints collected between 0 and 24 hours of incubation by liquid-chromatography-coupled mass spectrometry (LC–MS); details: 2 µM
[2] = human gut metagenome, 24 h, 2 µM
[3] = human gut metagenome, 24 h, 2 µM; remark: listed apart in the source
[4] = human gut metagenome, 24 h, 2 µM; remark: listed apart in the source
[5] = The drug is tested on WLS-370 corresponding to human gut metagenome with ENA study accession number: PRJEB37062 and ENA sample accession number: ERS12561793 for biotransformation under anaerobic condition. The drug concentrations were measured over 9 timepoints collected between 0 and 24 hours of incubation by liquid-chromatography-coupled mass spectrometry (LC–MS); details: 2 µM
[6] = The drug is tested on WLS-077 corresponding to human gut metagenome with ENA study accession number: PRJEB37062 and ENA sample accession number: ERS12561750 for biotransformation under anaerobic condition. The drug concentrations were measured over 9 timepoints collected between 0 and 24 hours of incubation by liquid-chromatography-coupled mass spectrometry (LC–MS); details: 2 µM
[7] = The drug is tested on Z-008 corresponding to metagenome with ENA study accession number: PRJEB37062 and ENA sample accession number: ERS12561808 for biotransformation under anaerobic condition. The drug concentrations were measured over 9 timepoints collected between 0 and 24 hours of incubation by liquid-chromatography-coupled mass spectrometry (LC–MS); details: 2 µM
[8] = The drug is tested on Z-016 corresponding to mouse gut metagenome with ENA study accession number: PRJEB37062 and ENA sample accession number: ERS12561815 for biotransformation under anaerobic condition. The drug concentrations were measured over 9 timepoints collected between 0 and 24 hours of incubation by liquid-chromatography-coupled mass spectrometry (LC–MS); details: 2 µM
[9] = human gut metagenome, 24 h, 2 µM; remark: listed apart in the source
[10] = The drug is tested on Z-021 corresponding to metagenome with ENA study accession number: PRJEB37062 and ENA sample accession number: ERS12561820 for biotransformation under anaerobic condition. The drug concentrations were measured over 9 timepoints collected between 0 and 24 hours of incubation by liquid-chromatography-coupled mass spectrometry (LC–MS); details: 2 µM
[11] = human gut metagenome, 24 h, 2 µM; remark: listed apart in the source
[12] = The drug is tested on WLS-086 corresponding to human gut metagenome with ENA study accession number: PRJEB37062 and ENA sample accession number: ERS12561752 for biotransformation under anaerobic condition. The drug concentrations were measured over 9 timepoints collected between 0 and 24 hours of incubation by liquid-chromatography-coupled mass spectrometry (LC–MS); details: 2 µM
[13] = human gut metagenome, 24 h, 2 µM; remark: listed apart in the source
[14] = The drug is tested on WLS-082 corresponding to human gut metagenome with ENA study accession number: PRJEB37062 and ENA sample accession number: ERS12561751 for biotransformation under anaerobic condition. The drug concentrations were measured over 9 timepoints collected between 0 and 24 hours of incubation by liquid-chromatography-coupled mass spectrometry (LC–MS); details: 2 µM
[15] = human gut metagenome, 24 h, 2 µM; remark: listed apart in the source
[16] = The drug is tested on Z-009 corresponding to pig gut metagenome with ENA study accession number: PRJEB37062 and ENA sample accession number: ERS12561809 for biotransformation under anaerobic condition. The drug concentrations were measured over 9 timepoints collected between 0 and 24 hours of incubation by liquid-chromatography-coupled mass spectrometry (LC–MS); details: 2 µM
[17] = The drug is tested on WLS-006 corresponding to human gut metagenome with ENA study accession number: PRJEB37062 and ENA sample accession number: ERS12561741 for biotransformation under anaerobic condition. The drug concentrations were measured over 9 timepoints collected between 0 and 24 hours of incubation by liquid-chromatography-coupled mass spectrometry (LC–MS); details: 2 µM
[18] = human gut metagenome, 24 h, 2 µM; remark: listed apart in the source
[19] = The drug is tested on Z-023 corresponding to metagenome with ENA study accession number: PRJEB37062 and ENA sample accession number: ERS12561822 for biotransformation under anaerobic condition. The drug concentrations were measured over 9 timepoints collected between 0 and 24 hours of incubation by liquid-chromatography-coupled mass spectrometry (LC–MS); details: 2 µM
[20] = The drug is tested on WLS-170 corresponding to human gut metagenome with ENA study accession number: PRJEB37062 and ENA sample accession number: ERS12561762 for biotransformation under anaerobic condition. The drug concentrations were measured over 9 timepoints collected between 0 and 24 hours of incubation by liquid-chromatography-coupled mass spectrometry (LC–MS); details: 2 µM
Further: call rule not given here.

| SMILES | Bacterial Biotransformation [1] | Bacterial Biotransformation [2] | Bacterial Biotransformation [3] | Bacterial Biotransformation [4] | Bacterial Biotransformation [5] | Bacterial Biotransformation [6] | Bacterial Biotransformation [7] | Bacterial Biotransformation [8] | Bacterial Biotransformation [9] | Bacterial Biotransformation [10] | Bacterial Biotransformation [11] | Bacterial Biotransformation [12] | Bacterial Biotransformation [13] | Bacterial Biotransformation [14] | Bacterial Biotransformation [15] | Bacterial Biotransformation [16] | Bacterial Biotransformation [17] | Bacterial Biotransformation [18] | Bacterial Biotransformation [19] | Bacterial Biotransformation [20] |
| --- | --- | --- | --- | --- | --- | --- | --- | --- | --- | --- | --- | --- | --- | --- | --- | --- | --- | --- | --- | --- |
| CC[C@@H](CO)NC(=O)[C@@H]1C=C2c3cccc4c3c(cn4C)C[C@H]2N(C)C1.O=C(O)/C=C\C(=O)O [METHYSERGIDE MALEATE] | Compound NOT metabolized | Compound NOT metabolized | Compound NOT metabolized | Compound NOT metabolized | Compound NOT metabolized | Compound NOT metabolized | Compound NOT metabolized | Compound NOT metabolized | Compound NOT metabolized | Compound NOT metabolized | Compound metabolized | Compound metabolized | Compound NOT metabolized | Compound NOT metabolized | Compound NOT metabolized | Compound NOT metabolized | Compound NOT metabolized | Compound NOT metabolized | Compound NOT metabolized | Compound metabolized |
| CCN(CC)CCNC(=O)c1cc(Cl)c(N)cc1OC [METOCLOPRAMIDE] | Compound NOT metabolized | Compound NOT metabolized | Compound NOT metabolized | Compound NOT metabolized | Compound NOT metabolized | Compound NOT metabolized | Compound NOT metabolized | Compound NOT metabolized | Compound NOT metabolized | Compound NOT metabolized | Compound NOT metabolized | Compound metabolized | Compound NOT metabolized | Compound NOT metabolized | Compound NOT metabolized | Compound NOT metabolized | Compound NOT metabolized | Compound NOT metabolized | Compound NOT metabolized | Compound NOT metabolized |
| Cc1ccccc1N1C(=O)c2cc(S(N)(=O)=O)c(Cl)cc2NC1C (stereo not given) [METOLAZONE] | Compound metabolized | Compound NOT metabolized | Compound NOT metabolized | Compound NOT metabolized | Compound NOT metabolized | Compound NOT metabolized | Compound NOT metabolized | Compound NOT metabolized | Compound NOT metabolized | Compound NOT metabolized | Compound metabolized | Compound metabolized | Compound NOT metabolized | Compound NOT metabolized | Compound metabolized | Compound NOT metabolized | Compound NOT metabolized | Compound metabolized | Compound NOT metabolized | Compound NOT metabolized |
| COCCc1ccc(OCC(O)CNC(C)C)cc1.COCCc1ccc(OCC(O)CNC(C)C)cc1.O=C(O)C(O)C(O)C(=O)O (stereo not given) [METOPROLOL TARTRATE] | Compound NOT metabolized | Compound NOT metabolized | Compound metabolized | Compound NOT metabolized | Compound metabolized | Compound NOT metabolized | Compound NOT metabolized | Compound NOT metabolized | Compound NOT metabolized | Compound NOT metabolized | Compound metabolized | Compound metabolized | Compound metabolized | Compound NOT metabolized | Compound metabolized | Compound NOT metabolized | Compound NOT metabolized | Compound metabolized | Compound NOT metabolized | Compound metabolized |
| COc1c(C)c2c(c(O)c1C/C=C(\C)CCC(=O)OCCN1CCOCC1)C(=O)OC2 [MYCOPHENOLATE MOFETIL] | Compound metabolized | Compound metabolized | Compound metabolized | Compound metabolized | Compound metabolized | Compound metabolized | Compound metabolized | Compound metabolized | Compound metabolized | Compound metabolized | Compound metabolized | Compound metabolized | Compound metabolized | Compound metabolized | Compound metabolized | Compound metabolized | Compound metabolized | Compound metabolized | Compound metabolized | Compound metabolized |

— ChEMBL document CHEMBL5724914, “Linking interpersonal differences in gut microbiota composition and drug biotransformation activity” (2024)
